Results published in paper PMC7587356, “High-Throughput Screening for Inhibitors of the SARS-CoV-2 Protease Using a FRET-Biosensor” (Molecules, 2020).
Counter-ions that a name gives are not always drawn. Like-named read-outs stand apart in the source and are kept apart here.

Target: SARS-CoV-2 3CLpro (Severe acute respiratory syndrome coronavirus 2, UniProt P0DTD1)
Assay: biochemical
Assay type: biochemical
Parameters: Replicate_1 / Replicate_2 / mean / mean (LOPAC_screen_w_protease): unit not given here
Conditions: for inhibition at 5 µM: 4 h
[1] = sheet LOPAC_screen_w_protease, LOPAC1280 primary screen with protease, 5 µM compound, mean of the two replicates, read-out: mean
[2] = sheet LOPAC_screen_w_protease, LOPAC1280 primary screen with protease, 5 µM compound, replicate 1, read-out: Replicate_1
[3] = sheet LOPAC_screen_w_protease, LOPAC1280 primary screen with protease, 5 µM compound, replicate 2, read-out: Replicate_2
[4] = sheet LOPAC_screen_w_protease, LOPAC1280 at 5 µM, mean of two replicates, read-out: mean
[5] = sheet LOPAC_screen_w_protease, LOPAC1280 at 5 µM, replicate 1, read-out: Replicate_1
[6] = sheet LOPAC_screen_w_protease, LOPAC1280 at 5 µM, replicate 2, read-out: Replicate_2
[7] = sheet LOPAC_screen_w_protease, primary screen with protease, 5 µM, mean of two replicates
[8] = sheet LOPAC_screen_w_protease, primary screen with protease, 5 µM, replicate 1
[9] = sheet LOPAC_screen_w_protease, primary screen with protease, 5 µM, replicate 2
[10] = LOPAC1280 primary screen with protease, 5 µM compound, mean of two replicates
[11] = read-out: Replicate_1 (LOPAC screen with protease)
[12] = read-out: Replicate_2 (LOPAC screen with protease)
[13] = read-out: mean (LOPAC screen with protease)
[14] = sheet LOPAC_screen_w_protease, primary screen with protease, mean of two replicates, read-out: mean
[15] = sheet LOPAC_screen_w_protease, primary screen with protease, replicate 1, read-out: Replicate_1
[16] = sheet LOPAC_screen_w_protease, primary screen with protease, replicate 2, read-out: Replicate_2
[17] = sheet LOPAC_screen_w_protease, LOPAC1280 primary screen at 5 µM, with protease, mean of the two replicates, read-out: mean
[18] = sheet LOPAC_screen_w_protease, LOPAC1280 primary screen at 5 µM, with protease, replicate 1, read-out: Replicate_1
[19] = sheet LOPAC_screen_w_protease, LOPAC1280 primary screen at 5 µM, with protease, replicate 2, read-out: Replicate_2
[20] = sheet LOPAC_screen_w_protease, primary screen with protease, compound at 5 µM, mean of two replicates, read-out: mean
[21] = sheet LOPAC_screen_w_protease, primary screen with protease, compound at 5 µM, replicate 1, read-out: Replicate_1
[22] = sheet LOPAC_screen_w_protease, primary screen with protease, compound at 5 µM, replicate 2, read-out: Replicate_2
[23] = LOPAC1280 primary screen with protease, 5 µM compound, replicate 1, read-out: Replicate_1 (LOPAC_screen_w_protease)
[24] = LOPAC1280 primary screen with protease, 5 µM compound, replicate 2, read-out: Replicate_2 (LOPAC_screen_w_protease)
[25] = LOPAC1280 primary screen with protease, 5 µM compound, mean of the two replicates
[26] = sheet LOPAC_screen_w_protease, primary screen at 5 µM, mean of two replicates, read-out: mean (LOPAC screen with protease)
[27] = sheet LOPAC_screen_w_protease, primary screen at 5 µM, replicate 1, read-out: Replicate_1 (LOPAC screen with protease)
[28] = sheet LOPAC_screen_w_protease, primary screen at 5 µM, replicate 2, read-out: Replicate_2 (LOPAC screen with protease)

C[C@H]1c2cccc(O)c2C(=O)C2=C(O)[C@]3(O)C(=O)C(C(N)=O)=C(O)[C@@H](N(C)C)[C@@H]3[C@@H](O)[C@@H]21 [Doxycycline hydrochloride]
inhibition at 5 µM [1]: 4.21%
inhibition at 5 µM [2]: 5.78%
inhibition at 5 µM [3]: 2.65%

CN(C)CCOC(C)(c1ccccc1)c1ccccn1 (stereo not drawn) [Doxylamine succinate]
inhibition at 5 µM [4]: 1.3%
inhibition at 5 µM [5]: 1.58%
inhibition at 5 µM [6]: 1.01%

COc1c2c(nc3ccccc13)OC(C(C)(O)CO)C2 (stereo not drawn) [Dubinidine]
mean (sheet LOPAC_screen_w_protease, primary screen with protease, compound at 5 µM, mean of two replicates): 2.93
Replicate_1 (sheet LOPAC_screen_w_protease, primary screen with protease, compound at 5 µM, replicate 1): 4.833
Replicate_2 (sheet LOPAC_screen_w_protease, primary screen with protease, compound at 5 µM, replicate 2): 1.026

CC(C)CC(NC(=O)C1OC1C(=O)O)C(=O)NCCCCNC(=N)N (stereo not drawn) [E-64]
mean [7]: 0.2813
Replicate_1 [8]: 1.4489
Replicate_2 [9]: -0.8864

CCCCCCCCCCCCCCCCCCOCC(COP(=O)([O-])OCC[N+](C)(C)C)OC (stereo not drawn) [ET-18-OCH3]
mean (LOPAC_screen_w_protease) [10]: 1.443
Replicate_1 (LOPAC_screen_w_protease) (LOPAC1280 primary screen with protease, 5 µM compound, replicate 1): 1.735
Replicate_2 (LOPAC_screen_w_protease) (LOPAC1280 primary screen with protease, 5 µM compound, replicate 2): 1.151

O=c1c2ccccc2[se]n1-c1ccccc1 [Ebselen, reference compound]
inhibition at 5 µM [11]: 105%
inhibition at 5 µM [12]: 102%
inhibition at 5 µM [13]: 103%

CC[N+](C)(C)c1cccc(O)c1 [Edrophonium chloride]
inhibition at 5 µM [14]: 2.25%
inhibition at 5 µM [15]: 5.19%
inhibition at 5 µM [16]: -0.704%

CCC1(C2=NCCN2)Cc2ccccc2O1 (stereo not drawn) [Efaroxan hydrochloride]
inhibition at 5 µM [17]: 0.692%
inhibition at 5 µM [18]: 2.34%
inhibition at 5 µM [19]: -0.954%

OC(CN1CCC(Cc2ccc(F)cc2)CC1)c1ccc(Cl)cc1 (stereo not drawn) [Eliprodil]
inhibition at 5 µM [20]: 2.62%
inhibition at 5 µM [21]: 2.73%
inhibition at 5 µM [22]: 2.52%

Cc1c2ccncc2c(C)c2c1[nH]c1ccccc12 [Ellipticine]
inhibition at 5 µM [14]: 2.32%
inhibition at 5 µM [15]: 4.78%
inhibition at 5 µM [16]: -0.147%

Cc1cc(O)c2c(c1)C(=O)c1cc(O)cc(O)c1C2=O [Emodin]
inhibition at 5 µM [11]: 10.9%
inhibition at 5 µM [12]: 5.72%
inhibition at 5 µM [13]: 8.32%

O=C(O)[C@@H]1[C@H](C(=O)O)[C@H]2CC[C@@H]1O2 [Endothall]
inhibition at 5 µM (read-out: Replicate_1): 3.42%
inhibition at 5 µM (read-out: Replicate_2): -0.805%
inhibition at 5 µM (read-out: mean): 1.31%

CSc1ccc(C(=O)c2[nH]c(=O)[nH]c2C)cc1 [Enoximone]
inhibition at 5 µM [11]: 7.98%
inhibition at 5 µM [12]: 10%
inhibition at 5 µM [13]: 9.01%

CC(C)C[C@H](NC(=O)[C@H](O)[C@H](N)Cc1ccccc1)C(=O)O [Epibestatin hydrochloride]
inhibition at 5 µM [23]: 1.71%
inhibition at 5 µM [24]: 2.3%
mean (LOPAC_screen_w_protease) [25]: 2.008

CC(C)[C@@]1(NC(=O)[C@@H]2C=C3c4cccc5[nH]cc(c45)C[C@H]3N(C)C2)O[C@@]2(O)[C@@H]3CCCN3C(=O)[C@H](Cc3ccccc3)N2C1=O [Ergocristine]
inhibition at 5 µM (read-out: Replicate_1): 4.04%
inhibition at 5 µM (read-out: Replicate_2): 2.86%
inhibition at 5 µM (read-out: mean): 3.45%

CCOC(=O)c1cnc2c(cnn2CC)c1NN=C(C)C [Etazolate hydrochloride]
inhibition at 5 µM [26]: 6.78%
inhibition at 5 µM [27]: 5.91%
inhibition at 5 µM [28]: 7.65%

CCC1(C)CC(=O)NC1=O (stereo not drawn) [Ethosuximide]
inhibition at 5 µM [23]: 4.21%
inhibition at 5 µM [24]: -0.21%
mean (LOPAC_screen_w_protease) [25]: 1.998

CCc1cccc2c3c([nH]c12)C(CC)(CC(=O)O)OCC3 (stereo not drawn) [Etodolac]
inhibition at 5 µM [17]: 0.659%
inhibition at 5 µM [18]: 1.48%
inhibition at 5 µM [19]: -0.164%

COC(=O)c1c(C)[nH]c(C)c1C(=O)c1ccccc1Cc1ccccc1 [FPL 64176]
mean [7]: 0.1984
Replicate_1 [8]: 1.679
Replicate_2 [9]: -1.282

CCCn1c(=O)c2[nH]c(C3CCCC3)nc2n(CCCOC(=O)c2ccc(S(=O)(=O)F)cc2)c1=O [FSCPX]
mean (LOPAC screen with protease) (sheet LOPAC_screen_w_protease, primary screen at 5 µM, mean of two replicates): 6.832
Replicate_1 (LOPAC screen with protease) (sheet LOPAC_screen_w_protease, primary screen at 5 µM, replicate 1): 8.115
Replicate_2 (LOPAC screen with protease) (sheet LOPAC_screen_w_protease, primary screen at 5 µM, replicate 2): 5.548

CC(C)=CCC/C(C)=C/CC/C(C)=C/CSc1ccccc1C(=O)O [Farnesylthiosalicylic acid]
mean [7]: 0.3894
Replicate_1 [8]: 1.928
Replicate_2 [9]: -1.149

NC(=O)OCC(COC(N)=O)c1ccccc1 [Felbamate]
inhibition at 5 µM [14]: 2.23%
inhibition at 5 µM [15]: 3.62%
inhibition at 5 µM [16]: 0.843%

Oc1ccc(C2CNCCc3c2cc(O)c(O)c3Cl)cc1 (stereo not drawn) [Fenoldopam bromide]
inhibition at 5 µM [11]: 29.5%
inhibition at 5 µM [12]: 23%
inhibition at 5 µM [13]: 26.2%

CC(Cc1ccc(O)cc1)NCC(O)c1cc(O)cc(O)c1 (stereo not drawn) [Fenoterol hydrobromide]
inhibition at 5 µM [1]: 5.3%
inhibition at 5 µM [2]: 6.58%
inhibition at 5 µM [3]: 4.02%

O=C1NCC2(CCN(CCc3ccccc3)CC2)O1 [Fenspiride hydrochloride]
inhibition at 5 µM [14]: 2.48%
inhibition at 5 µM [15]: 4.11%
inhibition at 5 µM [16]: 0.843%

COc1cccc2c1[C@@H]1CN(CCCCn3c(=O)[nH]c4c(sc5ncc(-c6ccccc6)nc54)c3=O)C[C@@H]1CO2 [Fiduxosin hydrochloride]
inhibition at 5 µM (sheet LOPAC_screen_w_protease, primary screen of LOPAC1280 at 5 µM with protease, mean of the two replicates, read-out: mean): 3.27%
inhibition at 5 µM (sheet LOPAC_screen_w_protease, primary screen of LOPAC1280 at 5 µM with protease, replicate 1, read-out: Replicate_1): 3.54%
inhibition at 5 µM (sheet LOPAC_screen_w_protease, primary screen of LOPAC1280 at 5 µM with protease, replicate 2, read-out: Replicate_2): 3.01%

O=C(NCC1CCCCN1)c1cc(OCC(F)(F)F)ccc1OCC(F)(F)F (stereo not drawn) [Flecainide acetate]
inhibition at 5 µM [4]: 1.01%
inhibition at 5 µM [5]: 2.84%
inhibition at 5 µM [6]: -0.814%

CCOC(=O)c1ncn2c1CN(C)C(=O)c1cc(F)ccc1-2 [Flumazenil]
inhibition at 5 µM [20]: 3.1%
inhibition at 5 µM [21]: 5.09%
inhibition at 5 µM [22]: 1.11%

Fc1ccc(C(c2ccc(F)cc2)N2CCN(C/C=C/c3ccccc3)CC2)cc1 [Flunarizine dihydrochloride]
inhibition at 5 µM [20]: 2.85%
inhibition at 5 µM [21]: 3.4%
inhibition at 5 µM [22]: 2.29%

CNCCC(Oc1ccc(C(F)(F)F)cc1)c1ccccc1 (stereo not drawn) [Fluoxetine hydrochloride]
inhibition at 5 µM [17]: 0.474%
inhibition at 5 µM [18]: 2.07%
inhibition at 5 µM [19]: -1.12%

OCCN1CCN(CCCN2c3ccccc3Sc3ccc(C(F)(F)F)cc32)CC1 [Fluphenazine dihydrochloride]
inhibition at 5 µM [23]: 4.18%
inhibition at 5 µM [24]: -0.136%
mean (LOPAC_screen_w_protease) [25]: 2.023

CCOC(=O)Nc1ccc(NCc2ccc(F)cc2)nc1N [Flupirtine maleate]
inhibition at 5 µM [26]: 10.9%
inhibition at 5 µM [27]: 11.1%
inhibition at 5 µM [28]: 10.6%

CC(C)C(=O)Nc1ccc([N+](=O)[O-])c(C(F)(F)F)c1 [Flutamide]
inhibition at 5 µM (sheet LOPAC_screen_w_protease, primary screen with protease, 5 µM, mean of two replicates, read-out: mean): 0.293%
inhibition at 5 µM (sheet LOPAC_screen_w_protease, primary screen with protease, 5 µM, replicate 1, read-out: Replicate_1): 2.71%
inhibition at 5 µM (sheet LOPAC_screen_w_protease, primary screen with protease, 5 µM, replicate 2, read-out: Replicate_2): -2.13%

COc1ccc(CC(C)NCC(O)c2ccc(O)c(NC=O)c2)cc1 (stereo not drawn) [Formoterol]
inhibition at 5 µM [23]: 1.5%
inhibition at 5 µM [24]: 1.19%
mean (LOPAC_screen_w_protease) [10]: 1.3452

C=C[C@@]1(C)CC(=O)[C@]2(O)[C@@]3(C)[C@@H](O)CCC(C)(C)[C@@H]3[C@H](O)[C@H](OC(C)=O)[C@@]2(C)O1 [Forskolin]
inhibition at 5 µM [4]: 1.29%
inhibition at 5 µM [5]: 1.85%
inhibition at 5 µM [6]: 0.734%

Cc1nc2c([nH]1)c(=O)n(C)c(=O)n2Cc1ccco1 [Furafylline]
inhibition at 5 µM [23]: 3.1%
inhibition at 5 µM [24]: -0.41%
mean (LOPAC_screen_w_protease) [10]: 1.344
